Consider 8 compounds from patent EP1401829B1, “NOVEL HETEROCYCLIC ANTIBACTERIAL COMPOUNDS” (Microbiotix, Inc., priority 2001, dated 2002).

The subject of one experiment is S. aureus. Kind of experiment: Minimal Inhibitory Concentration (MIC) determination, 96 well plates. The conditions noted are these: for MIC: Staphylococcus aureus, read-out: MIC (µg/ml) S. aureus. The experiment is classed as cell-based, Staphylococcus aureus. The protocol:
(§1) The following methods were used to characterize representative compounds. Minimal Inhibitory Concentration (MIC) determinations. MIC values were determined in 96 well plates, with bacterial growth monitored at OD 600 nm in 200µl following an initial bacterial seeding at approximately 1x10^5 colony forming units (CFU)/ml. Each drug is evaluated at five concentrations, with five data points at each dilution. MIC values (µg/ml) were determined against actively growing cultures in Heart-Brain Infusion (HBI) medium. Cell growth in cultures supplemented with a test compound was calculated as a percent of control at OD 600 nm after 16 to 18 hours at 37°C. This plate format conserves test compound and provides precise, quantitative data with low standard deviation determinations. Polymerase IIIC (Pol IIIC) assay. DNA polymerase activity (or inhibition thereof) was measured in a 96-well plate format. B. subtilis Pol IIIC was isolated as described by Hammond and Brown (Protein Expr. Purif., 3: 65-70 (1992)). Each 25 µl assay contained 30 mM Tris, pH 7.5, 10 mM magnesium acetate, 4 mM dithiothreitol, 20% glycerol, with 25 µM dATP, dCTP, dGTP and 10 µM dTTP (^3H-labelled at 1.44 Ci/mmole) and 0.4 mg/ml activated calf thymus DNA as substrates, as described previously (see Barnes et al, op. cit). Assays were initiated by the addition of 0.025 to 0.06 units of enzyme 1 unit is the amount required to incorporate 250 pmoles of [^3H] dTMP in a standard assay), incubated for 10 minutes at 30°C and terminated by the addition of 200 µl of cold 10% trichloroacetic acid (TCA),10 mM sodium pyrophosphate. Precipitated labeled DNA was collected on glass fiber filter plates, washed, dried, and counted in a liquid scintillation counter. Determination of Ki values. DNA polymerase activity was measured in a 96-well plate format in the absence of dGTP or dATP, depending on the structure of the test compound. Each 25 µl assay contained 30 mM Tris, pH 7.5, 10 mM magnesium acetate, 4 mM dithiothreitol, 20% glycerol, with 25 µM dATP, dCTP, and 10 µM dTTP (^3H-labelled at 1.44 Ci/mmole) and 0.4 mg/ml activated calf thymus DNA as substrates, as described previously. To each well were added 2 µl of compound solution to give final concentrations ranging from 20 - 0.027 µg/ml in the assay. Assays were initiated by the addition of 0.025 to 0.06 units of enzyme (1 unit is the amount required to incorporate 250 pmoles of [^3H] dTMP in a standard assay), incubated for 10 minutes at 30 °C and terminated by the addition of 200 µl of cold 10% trichloroacetic acid, 10 mM sodium pyrophosphate. Precipitated labeled DNA was collected on glass fiber filter plates, washed, dried, and counted in a liquid scintillation counter. Ki is the concentration of test compound that reduces the control polymerase IIIC activity by 50 percent.
(§2) MIC values were determined for the Gram positive bacteria Bacillus subtilis, Staphylococcus aureus (two strains), Enterococcus fecalis, Enterococcus fecium, and for the Gram negative bacterium Escherichia coli.

A further experiment relates to E. fecium. Described as above. The note with it: for MIC: Enterococcus, read-out: MIC (µg/ml) E. fecium. The experiment is classed as cell-based, Enterococcus fecium. The protocol:
as §1, with “This plate format conserves test compound and provides precise, quantitative data with low standard deviation determinations.” left out, “To each well were added 2 µl of compound solution to give final concentrations ranging from 20 - 0.027 µg/ml in the assay.” left out
as §2

The test system of another experiment is S.aureus (Smith). The description is as above. The note with it: for MIC: Staphylococcus aureus, read-out: MIC (µg/ml) S.aureus (Smith). The experiment is classed as cell-based, Staphylococcus aureus. The protocol:
as §1, with “This plate format conserves test compound and provides precise, quantitative data with low standard deviation determinations.” left out, “To each well were added 2 µl of compound solution to give final concentrations ranging from 20 - 0.027 µg/ml in the assay.” left out
as §2

The next experiment deals with E. coli. Described as above. The note with it: HBI medium, 16 to 18 hours at 37°C; for MIC: Escherichia coli, read-out: MIC (µg/ml) E. coli. It is filed as cell-based, Escherichia coli. The protocol: as §1, §2
Another experiment has as its system E. fecalis. The experiment is described as above. The conditions noted are these: for MIC: Enterococcus, read-out: MIC (µg/ml) E. fecalis. The experiment is classed as cell-based, Enterococcus fecalis. As to the method: as §1, with “This plate format conserves test compound and provides precise, quantitative data with low standard deviation determinations.” left out, “To each well were added 2 µl of compound solution to give final concentrations ranging from 20 - 0.027 µg/ml in the assay.” left out
as §2

A further experiment relates to B. subtilis. The description is as above. The note with it: for MIC: Bacillus subtilis, read-out: MIC (µg/ml) B. subtilis. It is filed as cell-based, Bacillus subtilis. The protocol:
as §1, with “This plate format conserves test compound and provides precise, quantitative data with low standard deviation determinations.” left out, “To each well were added 2 µl of compound solution to give final concentrations ranging from 20 - 0.027 µg/ml in the assay.” left out
as §2

For another experiment, the target named is T1, B. subtilis Pol IIIC (Bacillus subtilis, UniProt P13267).
T1 construct: made in house
Kind of experiment: Polymerase IIIC (Pol IIIC) assay, determination of Ki values. The experiment is classed as biochemical. The conditions noted are these: assay in absence of dGTP or dATP, Ki is the concentration that reduces control polymerase IIIC activity by 50 percent. As to the method: as §1, with “This plate format conserves test compound and provides precise, quantitative data with low standard deviation determinations.” left out, “To each well were added 2 µl of compound solution to give final concentrations ranging from 20 - 0.027 µg/ml in the assay.” left out

[1] abbreviates: HBI medium, 16 to 18 hours at 37°C.

Converted amounts (≈) assume the structure as drawn. Where two headings read alike, the source gives them in different places.

T1 sequence (P13267 whole entry): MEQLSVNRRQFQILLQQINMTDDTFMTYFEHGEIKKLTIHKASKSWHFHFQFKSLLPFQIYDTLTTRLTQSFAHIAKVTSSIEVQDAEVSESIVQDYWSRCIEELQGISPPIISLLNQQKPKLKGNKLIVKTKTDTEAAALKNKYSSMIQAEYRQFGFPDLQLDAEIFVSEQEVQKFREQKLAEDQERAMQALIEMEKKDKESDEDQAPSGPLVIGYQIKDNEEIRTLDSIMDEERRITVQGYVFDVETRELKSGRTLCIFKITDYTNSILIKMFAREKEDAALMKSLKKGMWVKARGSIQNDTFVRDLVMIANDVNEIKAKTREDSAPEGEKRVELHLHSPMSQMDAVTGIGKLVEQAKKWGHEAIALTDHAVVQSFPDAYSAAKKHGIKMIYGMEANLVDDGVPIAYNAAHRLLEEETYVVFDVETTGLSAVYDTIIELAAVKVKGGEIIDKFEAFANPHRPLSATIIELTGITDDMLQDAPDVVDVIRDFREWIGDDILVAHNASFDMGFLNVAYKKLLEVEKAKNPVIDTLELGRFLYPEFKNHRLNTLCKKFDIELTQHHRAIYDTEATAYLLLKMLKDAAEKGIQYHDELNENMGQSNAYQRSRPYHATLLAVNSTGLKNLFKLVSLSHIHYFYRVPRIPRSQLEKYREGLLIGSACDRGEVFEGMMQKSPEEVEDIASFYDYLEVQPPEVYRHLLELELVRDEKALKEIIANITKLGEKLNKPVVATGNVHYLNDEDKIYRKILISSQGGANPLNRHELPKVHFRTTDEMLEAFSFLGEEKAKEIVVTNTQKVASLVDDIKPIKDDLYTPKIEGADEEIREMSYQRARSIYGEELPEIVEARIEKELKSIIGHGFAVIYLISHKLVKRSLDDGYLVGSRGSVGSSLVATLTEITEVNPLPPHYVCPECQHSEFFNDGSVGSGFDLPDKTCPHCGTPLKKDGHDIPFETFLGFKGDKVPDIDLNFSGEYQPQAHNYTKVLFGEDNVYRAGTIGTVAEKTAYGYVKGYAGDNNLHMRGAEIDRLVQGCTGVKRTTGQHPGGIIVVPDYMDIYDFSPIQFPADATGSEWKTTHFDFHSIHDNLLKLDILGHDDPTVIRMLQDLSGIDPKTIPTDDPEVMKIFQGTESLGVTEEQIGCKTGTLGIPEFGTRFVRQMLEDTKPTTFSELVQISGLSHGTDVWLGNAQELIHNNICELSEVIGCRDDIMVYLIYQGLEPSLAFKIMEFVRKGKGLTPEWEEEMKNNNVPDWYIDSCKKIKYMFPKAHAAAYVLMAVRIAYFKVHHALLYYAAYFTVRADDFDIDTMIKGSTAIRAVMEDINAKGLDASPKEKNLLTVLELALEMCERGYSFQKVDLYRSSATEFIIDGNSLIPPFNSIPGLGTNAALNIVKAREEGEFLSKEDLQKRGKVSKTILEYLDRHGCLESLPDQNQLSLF

On to “3-{5-[1-(1-ethyl-3-carboxy-4-oxo-6,8-difluoro-7-quinolyl)-3-(1,3-diazabicyclononyl)]pentyl}-6-(3-ethyl-4-methylanilino)uracil [Compound 88]”, for which the “MIC (µg/ml) S. aureus” value with S. aureus (setting [1]) came to 1.25 µg/mL. Moreover, the “MIC (µg/ml) E. fecium” value against E. fecium (setting [1]) was 5 µg/mL. Also, the “MIC (µg/ml) S.aureus (Smith)” value in the experiment on S.aureus (Smith) (setting [1]) stood at 1.25 µg/mL. Besides, the “MIC (µg/ml) E. coli” value in the experiment on E. coli was over 20 µg/mL. Also, in the experiment with E. fecalis (setting [1]), the “MIC (µg/ml) E. fecalis” value was 2.5 µg/mL. For the same compound, in the experiment on B. subtilis (setting [1]), the “MIC (µg/ml) B. subtilis” value amounted to 0.625 µg/mL. For the same compound, the inhibitory constant (Ki) – broadly, the dissociation constant of the complex between target and ligand, obtained from inhibition or displacement – on B. subtilis Pol IIIC (read-out: Ki (µM) Pol IIIC) turned out to be 0.024 µM.

Turning to `CCc1cc(Nc2cc(=O)n(CCCCN3CCN(c4cc5c(cc4F)c(=O)c(C(=O)O)cn5CC)CC3)c(=O)[nH]2)ccc1C` [Compound 1, 3-{4-[1-(1-ethyl-3-carboxy-4-oxo-6-fluoro-7-quinolyl)-4-piperazinyl]butyl}-6-(3-ethyl-4-methylanilino)uracil], the MIC in the experiment on S. aureus (setting [1]) is 0.625 µg/mL (≈ 1.01 µM); in the experiment with E. fecium (setting [1]), 1.25 µg/mL (≈ 2.02 µM); with S.aureus (Smith) (setting [1]), 0.625 µg/mL (≈ 1.01 µM); in the experiment on E. coli it was over 20 µg/mL; in the experiment with E. fecalis (setting [1]), 1.25 µg/mL (≈ 2.02 µM); with B. subtilis (setting [1]), 0.156 µg/mL (≈ 0.252 µM). This compound yielded an inhibition constant Ki on B. subtilis Pol IIIC (Ki (µM) Pol IIIC) of 0.024 µM.

As to `CCc1cc(Nc2cc(=O)n(CCCCCCCN3CCN(c4cc5c(cc4F)c(=O)c(C(=O)O)cn5C4CC4)CC3)c(=O)[nH]2)ccc1C` [Compound 8, 3-{7-[1-(1-cyclopropyl-3-carboxy-4-oxo-6-fluoro-7-quinolyl)-4-piperazinyl]heptyl}-6-(3-ethyl-4-methylanilino)uracil], the MIC was 1.25 µg/mL (≈ 1.86 µM) with S. aureus (setting [1]); over 80 µg/mL in the experiment on E. fecium (setting [1]); 0.625 µg/mL (≈ 0.929 µM) in the experiment with S.aureus (Smith) (setting [1]); 40 µg/mL (≈ 59.5 µM) in the experiment on E. coli; 10 µg/mL (≈ 14.9 µM) in the experiment on E. fecalis (setting [1]); 0.313 µg/mL (≈ 0.465 µM) with B. subtilis (setting [1]). Further, on B. subtilis Pol IIIC (Ki (µM) Pol IIIC), the affinity, expressed as Ki, was 0.013 µM.

As to `CCc1cc(Nc2cc(=O)n(CCOCCN3CCN(c4cc5c(cc4F)c(=O)c(C(=O)O)cn5C4CC4)CC3)c(=O)[nH]2)ccc1C` [Compound 11, 3-{2-[1-(1-cyclopropyl-3-carboxy-4-oxo-6-fluoro-7-quinolyl)-4-piperazinyl]ethoxyethyl}-6-(3-ethyl-4-methylanilino)uracil], the MIC was 5 µg/mL (≈ 7.73 µM) with S. aureus (setting [1]); 5 µg/mL (≈ 7.73 µM) with E. fecium (setting [1]); 2.5 µg/mL (≈ 3.87 µM) in the experiment on S.aureus (Smith) (setting [1]); over 80 µg/mL in the experiment with E. coli; 10 µg/mL (≈ 15.5 µM) with E. fecalis (setting [1]); 1.25 µg/mL (≈ 1.93 µM) in the experiment with B. subtilis (setting [1]). Moreover, the Ki on B. subtilis Pol IIIC (Ki (µM) Pol IIIC) came out at 0.03 µM.

On to `CCc1cc(Nc2cc(=O)n(CCCCCN3CCN(c4cc5c(cc4F)c(=O)c(C(=O)O)cn5C4CC4)CC3)c(=O)[nH]2)ccc1C` [Compound 15, 3-{5-[1-(1-cyclopropyl-3-carboxy-4-oxo-6-fluoro-7-quinolyl)-4-piperazinyl]pentyl}-6-(3-ethyl-4-methylanilino)uracil], for which the MIC in the experiment with S. aureus (setting [1]) came out at 0.625 µg/mL (≈ 0.969 µM); with E. fecium (setting [1]), 1.25 µg/mL (≈ 1.94 µM); in the experiment with S.aureus (Smith) (setting [1]), 0.313 µg/mL (≈ 0.485 µM); in the experiment with E. coli it was 5 µg/mL (≈ 7.75 µM); with E. fecalis (setting [1]), 0.625 µg/mL (≈ 0.969 µM); with B. subtilis (setting [1]), 0.156 µg/mL (≈ 0.242 µM). For the same compound, the Ki at B. subtilis Pol IIIC (Ki (µM) Pol IIIC) came out at 0.03 µM.

Regarding `Cc1ccc(Nc2cc(=O)n(CCCCN3CCN(c4cc5c(cc4F)c(=O)c(C(=O)O)cn5C4CC4)CC3)c(=O)[nH]2)cc1Cl` [Compound 64, 3-{4-[1-(1-cyclopropyl-3-carboxy-4-oxo-6-fluoro-7-quinolyl)-4-piperazinyl]butyl}-6-(3-chloro-4-methylanilino)uracil], the MIC with S. aureus (setting [1]) worked out at 1.25 µg/mL (≈ 1.96 µM); in the experiment on E. fecium (setting [1]), 3.7 µg/mL (≈ 5.81 µM); with S.aureus (Smith) (setting [1]), 0.625 µg/mL (≈ 0.981 µM); with E. coli, 7.5 µg/mL (≈ 11.8 µM); with E. fecalis (setting [1]), 1.87 µg/mL (≈ 2.94 µM); in the experiment with B. subtilis (setting [1]) it was 0.313 µg/mL (≈ 0.491 µM). The inhibition constant (Ki) on B. subtilis Pol IIIC (Ki (µM) Pol IIIC) was 0.055 µM.

With `Cc1ccc(Nc2cc(=O)n(CCCCN3CCN(c4cc5c(cc4F)c(=O)c(C(=O)O)cn5C4CC4)CC3)c(=O)[nH]2)cc1C` [Compound 65, 3-{4-[1-(1-cyclopropyl-3-carboxy-4-oxo-6-fluoro-7-quinolyl)-4-piperazinyl]butyl}-6-(3,4-dimethylanilino)uracil], the MIC in the experiment with S. aureus (setting [1]) amounted to 0.95 µg/mL (≈ 1.54 µM); in the experiment with E. fecium (setting [1]), 1.87 µg/mL (≈ 3.03 µM); in the experiment with S.aureus (Smith) (setting [1]), 0.46 µg/mL (≈ 0.746 µM); in the experiment on E. coli, 10 µg/mL (≈ 16.2 µM); in the experiment on E. fecalis (setting [1]), 1.87 µg/mL (≈ 3.03 µM); with B. subtilis (setting [1]) it was 0.23 µg/mL (≈ 0.373 µM). Besides, the Ki at B. subtilis Pol IIIC (Ki (µM) Pol IIIC) is 0.095 µM.

For the compound `CCc1cc(Nc2ccc(NC(=O)N3CCN(c4cc5c(cc4F)c(=O)c(C(=O)O)cn5CC)CC3)c(=O)[nH]2)ccc1C` [Compound 77, 3-{[1-(1-ethyl-3-carboxy-4-oxo-6-fluoro-7-quinolyl)-4-piperazinyl]carboxamido}-6-(3-ethyl-4-methylanilino)-2-pyridone], the MIC was 2.5 µg/mL (≈ 4.25 µM) with S. aureus; over 80 µg/mL in the experiment on E. fecium; 2.5 µg/mL (≈ 4.25 µM) with S.aureus (Smith); over 80 µg/mL in the experiment with E. coli; over 80 µg/mL with E. fecalis; 5 µg/mL (≈ 8.49 µM) in the experiment on B. subtilis.
